Laboratory results as given in patent publication US20140343049A1, “DIHYDROFURAN DERIVATIVES AS INSECTICIDAL COMPOUNDS” (SYNGENTA PARTICIPATIONS AG, priority 2011, published 2014).

Experiments:
Type in all cases: in vivo
[1] = test system: Spodoptera littoralis (Egyptian cotton leafworm); assay: Spodoptera littoralis cotton leaf disc spray test; details: foliar, 72 h, cotton leaf discs sprayed at 200 ppm, 5 L1 larvae, mortality, feeding behavior, growth regulation 3 days after treatment
Excerpt: Cotton leaf discs were placed on agar in a 24-well microtiter plate and sprayed with test solutions at an application rate of 200 ppm. After drying, the leaf discs were infested with 5 L1 larvae. The samples were checked for mortality, feeding behavior, and growth regulation 3 days after treatment (DAT).

[2] = test system: Heliothis virescens (tobacco budworm); assay: Heliothis virescens egg test on artificial diet; details: 96 h, 200 ppm (concentration in well 18 ppm), eggs 0-24 h old, 4 days, egg mortality, larval mortality, growth regulation
Procedure: Eggs (0-24 h old) were placed in 24-well microtiter plate on artificial diet and treated with test solutions at an application rate of 200 ppm (concentration in well 18 ppm) by pipetting. After an incubation period of 4 days, samples were checked for egg mortality, larval mortality, and growth regulation.

[3] = test system: Plutella xylostella (diamond back moth); assay: Plutella xylostella L2 larvae test on artificial diet; details: 144 h, 200 ppm (concentration in well 18 ppm), 6 days, larval mortality and growth regulation
Procedure: (§1) 24-well microtiter plate (MTP) with artificial diet was treated with test solutions at an application rate of 200 ppm (concentration in well 18 ppm) by pipetting. After drying, the MTPs were infested with L2 larvae (7-12 per well). After an incubation period of 6 days, samples were checked for larval mortality and growth regulation.

[4] = test system: Diabrotica balteata (corn root worm); assay: Diabrotica balteata L2 larvae test on artificial diet; details: 120 h, 200 ppm (concentration in well 18 ppm), 5 days, larval mortality and growth regulation
Procedure: as §1, with “A 24-well” for “24-well”, “(6-10” for “(7-12”, “5” for “6”
as §1, with “A 24-well” for “24-well”, “12.5” for “200”, “MTP's” for “MTPs”, “(6-10” for “(7-12”, “5” for “6”

[5] = test system: Thrips tabaci (onion thrips); assay: Thrips tabaci sunflower leaf disc spray test; details: foliar, 168 h, sunflower leaf discs sprayed at 200 ppm, mixed ages, mortality after 7 days
Procedure: Sunflower leaf discs were placed on agar in a 24-well microtiter plate and sprayed with test solutions at an application rate of 200 ppm. […] After drying, the leaf discs were infested with a thrip population of mixed ages. After an incubation period of 7 days, samples were checked for mortality.

[6] = test system: Tetranychus urticae (two-spotted spider mite); assay: Tetranychus urticae bean leaf disc spray test; details: foliar, 192 h, bean leaf discs sprayed at 200 ppm, mixed ages, egg, larval and adult mortality 8 days later
Excerpt: Bean leaf discs on agar in 24-well microtiter plates were sprayed with test solutions at an application rate of 200 ppm. After drying, the leaf discs are infested with mite populations of mixed ages. 8 days later, discs are checked for egg mortality, larval mortality, and adult mortality. […]

[7] = test system: Myzus persicae (green peach aphid); assay: Myzus persicae (sachet) mixed population test; details: 120 h, sucrose solution, application rate 12.5 ppm, mortality 5 days after infestation
Excerpt: Test compounds were applied by pipette into 24 well plates and mixed with Sucrose solution. The plates were closed with a stretched Parafilm. A plastic stencil with 24 holes is placed onto the plate and infested pea seedlings were placed directly on the Parafilm. The infested plate is closed with a gel blotting paper and another plastic stencil and then turned upside down. 5 days after infestation the samples were checked on mortality. Application rate: 12.5 ppm.

CCNC(=O)c1ccc(C2=CC(c3cc(Cl)cc(Cl)c3)(C(F)(F)F)OC2)cc1C (stereo not drawn) [Compound A4]
≥ 80%: pest or weed control at 200 ppm [1] | pest or weed control at 200 ppm [2] | pest or weed control at 200 ppm [3] | pest or weed control at 200 ppm [4] | pest or weed control at 200 ppm [5] | pest or weed control at 200 ppm [6]

Cc1cc(C2=CC(c3cc(Cl)cc(Cl)c3)(C(F)(F)F)OC2)ccc1C(=O)NCc1cn(C)cn1 (stereo not drawn) [Compound A17]
≥ 80%: pest or weed control at 200 ppm [1] | pest or weed control at 200 ppm [2] | pest or weed control at 200 ppm [3] | pest or weed control at 200 ppm [4] | pest or weed control at 200 ppm [5] | pest or weed control at 200 ppm [6]

Cc1cc(C2=CC(c3cc(Cl)cc(Cl)c3)(C(F)(F)F)OC2)ccc1C(=O)NCCCBr (stereo not drawn) [Compound A19]
≥ 80%: pest or weed control at 200 ppm [1] | pest or weed control at 200 ppm [2] | pest or weed control at 200 ppm [3] | pest or weed control at 200 ppm [4] | pest or weed control at 200 ppm [5] | pest or weed control at 200 ppm [6]

Cc1cc(C2=CC(c3cc(Cl)cc(Cl)c3)(C(F)(F)F)OC2)ccc1C(=O)NCCC(F)(F)F (stereo not drawn) [Compound A20]
≥ 80%: pest or weed control at 200 ppm [1] | pest or weed control at 200 ppm [2] | pest or weed control at 200 ppm [3] | pest or weed control at 200 ppm [4] | pest or weed control at 200 ppm [5] | pest or weed control at 200 ppm [6]

CCC(C)NC(=O)c1ccc(C2=CC(c3cc(Cl)cc(Cl)c3)(C(F)(F)F)OC2)cc1C (stereo not drawn) [Compound A27]
≥ 80%: pest or weed control at 200 ppm [1] | pest or weed control at 200 ppm [2] | pest or weed control at 200 ppm [3] | pest or weed control at 200 ppm [4] | pest or weed control at 200 ppm [5] | pest or weed control at 200 ppm [6]

Cc1cc(C2=CC(c3cc(Cl)cc(Cl)c3)(C(F)(F)F)OC2)ccc1C(=O)NCC(F)F (stereo not drawn) [Compound A29]
≥ 80%: pest or weed control at 200 ppm [1] | pest or weed control at 200 ppm [2] | pest or weed control at 200 ppm [3] | pest or weed control at 200 ppm [4] | pest or weed control at 200 ppm [5] | pest or weed control at 200 ppm [6]

C#CC1(NC(=O)c2ccc(C3=CC(c4cc(Cl)cc(Cl)c4)(C(F)(F)F)OC3)cc2C)CCCCC1 (stereo not drawn) [Compound A30]
≥ 80%: pest or weed control at 200 ppm [3] | pest or weed control at 200 ppm [4] | pest or weed control at 200 ppm [5] | pest or weed control at 200 ppm [6]

Cc1cc(C2=CC(c3cc(Cl)cc(Cl)c3)(C(F)(F)F)OC2)ccc1C(=O)NCCC1OCCO1 (stereo not drawn) [Compound A31]
≥ 80%: pest or weed control at 200 ppm [1] | pest or weed control at 200 ppm [3] | pest or weed control at 200 ppm [4] | pest or weed control at 200 ppm [5] | pest or weed control at 200 ppm [6]

CSCCNC(=O)c1ccc(C2=CC(c3cc(Cl)cc(Cl)c3)(C(F)(F)F)OC2)cc1C (stereo not drawn) [Compound A49]
≥ 80%: pest or weed control at 200 ppm [1] | pest or weed control at 200 ppm [2] | pest or weed control at 200 ppm [3] | pest or weed control at 200 ppm [4] | pest or weed control at 200 ppm [6]

Cc1cc(C2=CC(c3cc(Cl)cc(Cl)c3)(C(F)(F)F)OC2)ccc1C(=O)Nc1cccc2ncccc12 (stereo not drawn) [Compound A57]
≥ 80%: pest or weed control at 200 ppm [1] | pest or weed control at 200 ppm [2] | pest or weed control at 200 ppm [3] | pest or weed control at 200 ppm [4] | pest or weed control at 200 ppm [6]

Cc1cc(C2=CC(c3cc(Cl)cc(Cl)c3)(C(F)(F)F)OC2)ccc1C(=O)Nc1cccc(F)c1 (stereo not drawn) [Compound A59]
≥ 80%: pest or weed control at 200 ppm [1] | pest or weed control at 200 ppm [2] | pest or weed control at 200 ppm [3] | pest or weed control at 200 ppm [5]

Cc1cc(C2=CC(c3cc(Cl)cc(Cl)c3)(C(F)(F)F)OC2)ccc1C(=O)NCC1CCS1 (stereo not drawn) [Compound A80]
≥ 80%: pest or weed control at 200 ppm [1] | pest or weed control at 200 ppm [2] | pest or weed control at 200 ppm [3] | pest or weed control at 200 ppm [4] | pest or weed control at 200 ppm [6]

Cc1cc(C2=CC(c3cc(Cl)cc(Cl)c3)(C(F)(F)F)OC2)ccc1C(=O)NCC1CCS1(=O)=O (stereo not drawn) [Compound A81]
≥ 80%: pest or weed control at 200 ppm [1] | pest or weed control at 200 ppm [2] | pest or weed control at 200 ppm [3] | pest or weed control at 200 ppm [4] | pest or weed control at 200 ppm [6]

CO/N=C/NC(=O)c1ccc(C2=CC(c3cc(Cl)cc(Cl)c3)(C(F)(F)F)OC2)cc1C (stereo not drawn) [Compound A86, (E)-4-[5-(3,5-Dichlorophenyl)-5-trifluoromethyl-2,5-dihydro-furan-3-yl]-N-[(methoxyimino)methyl]-2-methylbenzamide]
≥ 80%: pest or weed control at 200 ppm [1] | pest or weed control at 200 ppm [2] | pest or weed control at 200 ppm [3] | pest or weed control at 200 ppm [4] | pest or weed control at 200 ppm [5] | pest or weed control at 200 ppm [6]

CCNC(=O)c1ccc(C2=CC(c3cc(Cl)cc(Cl)c3)(C(F)(F)F)OC2)nc1C (stereo not drawn) [Compound C2]
≥ 80%: pest or weed control at 200 ppm [1] | pest or weed control at 200 ppm [3] | pest or weed control at 200 ppm [4] | pest or weed control at 200 ppm [5] | pest or weed control at 200 ppm [6]

COCC(C)NC(=O)c1ccc(C2=CC(c3cc(Cl)cc(Cl)c3)(C(F)(F)F)OC2)nc1C (stereo not drawn) [Compound C4]
≥ 80%: pest or weed control at 200 ppm [1] | pest or weed control at 200 ppm [5]

CCC(C)NC(=O)c1ccc(C2=CC(c3cc(Cl)cc(Cl)c3)(C(F)(F)F)OC2)nc1C (stereo not drawn) [Compound C7]
≥ 80%: pest or weed control at 200 ppm [1] | pest or weed control at 200 ppm [2] | pest or weed control at 200 ppm [3] | pest or weed control at 200 ppm [4] | pest or weed control at 200 ppm [5]

Cc1nc(C2=CC(c3cc(Cl)cc(Cl)c3)(C(F)(F)F)OC2)ccc1C(=O)NCc1ccc(Cl)nc1 (stereo not drawn) [Compound C14]
≥ 80%: pest or weed control at 200 ppm [1] | pest or weed control at 200 ppm [2] | pest or weed control at 200 ppm [3] | pest or weed control at 200 ppm [4] | pest or weed control at 200 ppm [6]

Cc1nc(C2=CC(c3cc(Cl)cc(Cl)c3)(C(F)(F)F)OC2)ccc1C(=O)NC1(C)CSC1 (stereo not drawn) [Compound C17]
≥ 80%: pest or weed control at 200 ppm [1] | pest or weed control at 200 ppm [3] | pest or weed control at 200 ppm [4] | pest or weed control at 200 ppm [5] | pest or weed control at 200 ppm [6]

Cc1nc(C2=CC(c3cc(Cl)cc(Cl)c3)(C(F)(F)F)OC2)ccc1C(=O)NC1CSC1 (stereo not drawn) [Compound C19]
≥ 80%: pest or weed control at 200 ppm [1] | pest or weed control at 200 ppm [3] | pest or weed control at 200 ppm [4] | pest or weed control at 200 ppm [5] | pest or weed control at 200 ppm [6]

Cc1nc(C2=CC(c3cc(Cl)cc(Cl)c3)(C(F)(F)F)OC2)ccc1C(=O)NC1CC2CCC1C2 (stereo not drawn) [Compound C20]
≥ 80%: pest or weed control at 200 ppm [1] | pest or weed control at 200 ppm [2] | pest or weed control at 200 ppm [3] | pest or weed control at 200 ppm [4] | pest or weed control at 200 ppm [5]

Cc1nc(C2=CC(c3cc(Cl)cc(Cl)c3)(C(F)(F)F)OC2)ccc1C(=O)NC1CCC1 (stereo not drawn) [Compound C21]
≥ 80%: pest or weed control at 200 ppm [1] | pest or weed control at 200 ppm [2] | pest or weed control at 200 ppm [3] | pest or weed control at 200 ppm [4] | pest or weed control at 200 ppm [5]

Cc1cc(C2=CC(c3cc(Cl)cc(Cl)c3)(C(F)(F)F)OC2)ccc1C(=O)NCCC(F)(F)F (stereo not drawn) [Compound D6]
≥ 80%: pest or weed control at 12.5 ppm [7]

CCC(C)NC(=O)c1ccc(C2=CC(c3cc(Cl)cc(Cl)c3)(C(F)(F)F)OC2)cc1C (stereo not drawn) [Compound D7]
≥ 80%: pest or weed control at 12.5 ppm [7]

Cc1cc(C2=CC(c3cc(Cl)cc(Cl)c3)(C(F)(F)F)OC2)ccc1C(=O)NC1CC2CCC1C2 (stereo not drawn) [Compound D22]
≥ 80%: pest or weed control at 200 ppm [3] | pest or weed control at 200 ppm [4] | pest or weed control at 200 ppm [5]

Cc1cc(C2=CC(c3cc(Cl)cc(Cl)c3)(C(F)(F)F)OC2=O)ccc1C(=O)NCC(=O)NCC(F)(F)F (stereo not drawn) [Compound E5]
≥ 80%: pest or weed control at 200 ppm [1] | pest or weed control at 200 ppm [2] | pest or weed control at 200 ppm [3] | pest or weed control at 200 ppm [4] | pest or weed control at 200 ppm [6]

Cc1cc(C2=CC(c3cc(Cl)cc(Cl)c3)(C(F)(F)F)OC2=O)ccc1C(=O)NC1CCC1 (stereo not drawn) [Compound E18]
≥ 80%: pest or weed control at 200 ppm [5]
